From US20080292619A1, “Pharmaceutical Composition Containing Meltrin Antagonist” (MOCHIDA PHARMACEUTICAL CO., LTD., priority 2004, published 2008) come the findings set out here.

In the oligonucleotide strings, read from the 5' end, every base follows the letter of its sugar. An asterisk marks phosphorothioate; unmarked linkages are phosphodiester. Other units and linkages are bracketed, terminal groups are in braces. A string of capitals states the bases alone. d = 2'-deoxy (DNA)

One data set relates to human meltrin α RNA. Briefly: Suppression of human meltrin α expression by antisense compound in RD cell (real time PCR). The conditions noted are these: 50 nM; RD cell; corrected by GAPDH. It counts as cell-based. Put shortly: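 RD cells transfected with heat-denatured antisense oligodeoxynucleotide plus Lipofectin in Opti-MEM for 4 h at 37° C, then cultured 18 h. Meltrin α RNA quantified by TaqMan RT-PCR against plasmid standard curve, GAPDH-corrected; suppression vs untreated cells, rated +/++/+++ for ≥30/50/70%.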
With “H132 + 19: gtgggtaggaatctggcggc (GTGGGTAGGAATCTGGCGGC; antisense; DNA, all phosphorothioate, methylation of C not given here)”, the “suppression rate of expression, 50 nM” value is recorded as “+ (“+” when the suppression rate was at least 30%)”.

As to “H009: agccctcgcgcacggcccgc (AGCCCTCGCGCACGGCCCGC; antisense; DNA, all phosphorothioate, methylation of C not given here)”, the “suppression rate of expression, 50 nM” value is reported as “+ (“+” when the suppression rate was at least 30%)”.

For “H144 + 13: gaggatctgcaggcagaggc (GAGGATCTGCAGGCAGAGGC; antisense; DNA, all phosphorothioate, methylation of C not given here)”, the “suppression rate of expression, 50 nM” value is “++ (“++” when the suppression rate was at least 50%)”.

Take “H144 + 6: tgcaggcagaggcttctgag (TGCAGGCAGAGGCTTCTGAG; antisense; DNA, all phosphorothioate, methylation of C not given here)”: the “suppression rate of expression, 50 nM” value is “++ (“++” when the suppression rate was at least 50%)”.

For “H131 + 10: aggccttttccaaggtggcc (AGGCCTTTTCCAAGGTGGCC; antisense; DNA, all phosphorothioate, methylation of C not given here)”, the “suppression rate of expression, 50 nM” value was “+ (“+” when the suppression rate was at least 30%)”.

On to “H141 + 15: cctaagtgcaggcttggctg (CCTAAGTGCAGGCTTGGCTG; antisense; DNA, all phosphorothioate, methylation of C not given here)”, for which the “suppression rate of expression, 50 nM” value is reported as “+ (“+” when the suppression rate was at least 30%)”.

For the substance “H132 + 18: tgggtaggaatctggcggct (TGGGTAGGAATCTGGCGGCT; antisense; DNA, all phosphorothioate, methylation of C not given here)”, the “suppression rate of expression, 50 nM” value is “+ (“+” when the suppression rate was at least 30%)”.

Take “H139 + 17: cgctaggtgcacgtggggcc (CGCTAGGTGCACGTGGGGCC; antisense; DNA, all phosphorothioate, methylation of C not given here)”: the “suppression rate of expression, 50 nM” value is on record as “+ (“+” when the suppression rate was at least 30%)”.

In the case of “H137: gctgagggacattcaggccg (GCTGAGGGACATTCAGGCCG; antisense; DNA, all phosphorothioate, methylation of C not given here)”, the “suppression rate of expression, 50 nM” value is “++ (“++” when the suppression rate was at least 50%)”.

As for “H173: agctgcatctggtaccataa (dA*dG*dC*dT*dG*dC*dA*dT*dC*dT*dG*dG*dT*dA*dC*dC*dA*dT*dA*dA; antisense)”, the “suppression rate of expression, 50 nM” value was “++ (“++” when the suppression rate was at least 50%)”.

For “H137 + 2: gggctgagggacattcaggc (GGGCTGAGGGACATTCAGGC; antisense; DNA, all phosphorothioate, methylation of C not given here)”, the “suppression rate of expression, 50 nM” value was “+++ (“+++” when the suppression rate was at least 70%)”.

For the substance “H131 + 5: ttttccaaggtggccgaggt (TTTTCCAAGGTGGCCGAGGT; antisense; DNA, all phosphorothioate, methylation of C not given here)”, the “suppression rate of expression, 50 nM” value was “+ (“+” when the suppression rate was at least 30%)”.

As to “H134: atctcctgggattgtccttc (ATCTCCTGGGATTGTCCTTC; antisense; DNA, all phosphorothioate, methylation of C not given here)”, the “suppression rate of expression, 50 nM” value was “+ (“+” when the suppression rate was at least 30%)”.

On to “H145 + 3: gttctggccagaggatctgc (dG*dT*dT*dC*dT*dG*dG*dC*dC*dA*dG*dA*dG*dG*dA*dT*dC*dT*dG*dC; antisense)”, for which the “suppression rate of expression, 50 nM” value was “++ (“++” when the suppression rate was at least 50%)”.

The same data set, now with this note: 200 nM; RD cell; corrected by GAPDH.
“H235: ttgcctagatacagtgggga (DNA dT*dT*dG*dC*dC*dT*dA*dG*dA*dT*dA*dC*dA*dG*dT*dG*dG*dG*dG*dA; antisense)”: the “suppression rate of expression, 200 nM” value is on record as “++ (“++” when the suppression rate was at least 50%)”.

Consider “H046: tgccttcttgcccatgtctg (TGCCTTCTTGCCCATGTCTG; antisense; DNA, all phosphorothioate, methylation of C not given here)”, for which the “suppression rate of expression, 200 nM” value is listed as “++ (“++” when the suppression rate was at least 50%)”.

Turning to “H009: agccctcgcgcacggcccgc (AGCCCTCGCGCACGGCCCGC; antisense; DNA, all phosphorothioate, methylation of C not given here)”, the “suppression rate of expression, 200 nM” value was “+++ (“+++” when the suppression rate was at least 70%)”.

For the substance “H058: tcatggaggctggtgaatgg (dT*dC*dA*dT*dG*dG*dA*dG*dG*dC*dT*dG*dG*dT*dG*dA*dA*dT*dG*dG; antisense)”, the “suppression rate of expression, 200 nM” value is “++ (“++” when the suppression rate was at least 50%)”.

Regarding “H030: gtgggtttccgtgaaactgc (GTGGGTTTCCGTGAAACTGC; antisense; DNA, all phosphorothioate, methylation of C not given here)”, the “suppression rate of expression, 200 nM” value is reported as “+ (“+” when the suppression rate was at least 30%)”.

As for “H237: gtgtcacgtgtttagtttat (DNA dG*dT*dG*dT*dC*dA*dC*dG*dT*dG*dT*dT*dT*dA*dG*dT*dT*dT*dA*dT; antisense)”, the “suppression rate of expression, 200 nM” value is on record as “+ (“+” when the suppression rate was at least 30%)”.

Take “H074: acaccatgggaaatgggtac (dA*dC*dA*dC*dC*dA*dT*dG*dG*dG*dA*dA*dA*dT*dG*dG*dG*dT*dA*dC; antisense)”: the “suppression rate of expression, 200 nM” value is “+ (“+” when the suppression rate was at least 30%)”.

As to “H161: tacctgtgcaagtagacaga (dT*dA*dC*dC*dT*dG*dT*dG*dC*dA*dA*dG*dT*dA*dG*dA*dC*dA*dG*dA; antisense)”, the “suppression rate of expression, 200 nM” value is on record as “++ (“++” when the suppression rate was at least 50%)”.

In the case of “H080: caaatctgttcccacacttc (dC*dA*dA*dA*dT*dC*dT*dG*dT*dT*dC*dC*dC*dA*dC*dA*dC*dT*dT*dC; antisense)”, the “suppression rate of expression, 200 nM” value is on record as “+ (“+” when the suppression rate was at least 30%)”.

Turning to “H090: ggcccctgtgcagaactctg (dG*dG*dC*dC*dC*dC*dT*dG*dT*dG*dC*dA*dG*dA*dA*dC*dT*dC*dT*dG; antisense)”, the “suppression rate of expression, 200 nM” value was “++ (“++” when the suppression rate was at least 50%)”.

In the case of “H114: gtgaaccccaaagacactaa (dG*dT*dG*dA*dA*dC*dC*dC*dC*dA*dA*dA*dG*dA*dC*dA*dC*dT*dA*dA; antisense)”, the “suppression rate of expression, 200 nM” value is reported as “+ (“+” when the suppression rate was at least 30%)”.

On to “H137: gctgagggacattcaggccg (GCTGAGGGACATTCAGGCCG; antisense; DNA, all phosphorothioate, methylation of C not given here)”, for which the “suppression rate of expression, 200 nM” value is “++ (“++” when the suppression rate was at least 50%)”.

For “H173: agctgcatctggtaccataa (dA*dG*dC*dT*dG*dC*dA*dT*dC*dT*dG*dG*dT*dA*dC*dC*dA*dT*dA*dA; antisense)”, the “suppression rate of expression, 200 nM” value is “+++ (“+++” when the suppression rate was at least 70%)”.

For the substance “H102: agcatctctcatctcgcatt (dA*dG*dC*dA*dT*dC*dT*dC*dT*dC*dA*dT*dC*dT*dC*dG*dC*dA*dT*dT; antisense)”, the “suppression rate of expression, 200 nM” value was “+ (“+” when the suppression rate was at least 30%)”.

Turning to “H031: tcagtaccgtcttgcagata (TCAGTACCGTCTTGCAGATA; antisense; DNA, all phosphorothioate, methylation of C not given here)”, the “suppression rate of expression, 200 nM” value is reported as “+ (“+” when the suppression rate was at least 30%)”.

With “H093: gtccacatcctgacatgagt (dG*dT*dC*dC*dA*dC*dA*dT*dC*dC*dT*dG*dA*dC*dA*dT*dG*dA*dG*dT; antisense)”, the “suppression rate of expression, 200 nM” value is on record as “+ (“+” when the suppression rate was at least 30%)”.

For “H132: cttcctcatcaggccttttc (CTTCCTCATCAGGCCTTTTC; antisense; DNA, all phosphorothioate, methylation of C not given here)”, the “suppression rate of expression, 200 nM” value is reported as “++ (“++” when the suppression rate was at least 50%)”.

Consider “H068: gctcatgtgccagggtcacg (dG*dC*dT*dC*dA*dT*dG*dT*dG*dC*dC*dA*dG*dG*dG*dT*dC*dA*dC*dG; antisense)”, for which the “suppression rate of expression, 200 nM” value was “+ (“+” when the suppression rate was at least 30%)”.

For “H247: aacctttttaatagtatata (DNA dA*dA*dC*dC*dT*dT*dT*dT*dT*dA*dA*dT*dA*dG*dT*dA*dT*dA*dT*dA; antisense)”, the “suppression rate of expression, 200 nM” value was “+ (“+” when the suppression rate was at least 30%)”.

Take “H225: aagacagaggcatcatggca (dA*dA*dG*dA*dC*dA*dG*dA*dG*dG*dC*dA*dT*dC*dA*dT*dG*dG*dC*dA; antisense)”: the “suppression rate of expression, 200 nM” value was “+++ (“+++” when the suppression rate was at least 70%)”.

On to “H119: agccaaacttgtcacagaag (AGCCAAACTTGTCACAGAAG; antisense; DNA, all phosphorothioate, methylation of C not given here)”, for which the “suppression rate of expression, 200 nM” value was “+ (“+” when the suppression rate was at least 30%)”.

With “H035: ctgaatcagaatatccccgt (CTGAATCAGAATATCCCCGT; antisense; DNA, all phosphorothioate, methylation of C not given here)”, the “suppression rate of expression, 200 nM” value is given as “++ (“++” when the suppression rate was at least 50%)”.

Take “H134: atctcctgggattgtccttc (ATCTCCTGGGATTGTCCTTC; antisense; DNA, all phosphorothioate, methylation of C not given here)”: the “suppression rate of expression, 200 nM” value was “++ (“++” when the suppression rate was at least 50%)”.

For the substance “H043: gtgttgtgatgtgatccaca (GTGTTGTGATGTGATCCACA; antisense; DNA, all phosphorothioate, methylation of C not given here)”, the “suppression rate of expression, 200 nM” value is “+ (“+” when the suppression rate was at least 30%)”.

Still in this data set, the particulars now being: 200 nM; chimeric 2′-methoxy antisense oligonucleotides; RD cell.
On to “H075-OMe2: chimeric antisense oligonucleotide AAGTCcttcctgctgCAACT, uppercase 2′-methoxy nucleotides, lowercase phosphorothioate nucleotides (AAGTCCTTCCTGCTGCAACT; 2'-O-methyl at 1, 2, 3, 4, 5, 16, 17, 18, 19, 20, other sugars, backbone and T or U not given here; lowercase gap nucleotides phosphorothioate)”, for which the “suppression rate of expression, 200 nM” value was “+ (“+” when the suppression rate was at least 30%)”.
